As usually defined, the Ki is the equilibrium dissociation constant of an inhibitor or competing ligand from its target.

Where two headings read alike, the source gives them in different places.

Assay [1] has as its system H929 human cancer cell lines. Kind of assay: Cellular viability / proliferation (Cell TiterGlo, 72 h). It counts as cell-based. In outline:
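1,000 cells/well, 10% FBS medium; compound added at 24 h, 2-fold dilutions from 50 μM top, DMSO <1% final. 72 h exposure, CellTiterGlo 30 min RT dark, luminescence read. IC50 by 4-parameter fit.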
(In general: In ATP-based viability assays light output follows the ATP content of the culture.)

Another assay concerns the target Mcl-1 (Homo sapiens (Human), UniProt Q07820). Kind of assay: Fluorescence polarization anisotropy (FPA) competition assay, FITC-Bak or FITC-Bim BH3 peptide. The format is binding. Conditions: read-out: Ki for Inhibition of Mcl-1 by FPA assay. (Fluorescence polarisation rises when a labelled molecule tumbles more slowly, as on binding a larger partner.)
Where [2] appears, read: Homo sapiens, NCI-H929, 72 h, read-out: GI50 on cellular proliferation of H929 human cancer cell lines, H929 cells, 72 h, Cell TiterGlo, 10% FBS.

Mcl-1, sequence (Q07820 172-327): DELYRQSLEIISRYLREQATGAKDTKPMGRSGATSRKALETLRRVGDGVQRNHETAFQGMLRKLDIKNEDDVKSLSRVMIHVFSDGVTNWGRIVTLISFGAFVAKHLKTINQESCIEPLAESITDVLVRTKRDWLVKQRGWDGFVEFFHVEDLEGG

As to `Cc1cc(OCCCc2c3n(c4c(-c5c(C)nc(CN6CCCC6)nc5C)c(Cl)ccc24)[C@H](C)CN(c2cn(C)c4ccc(C(=O)O)cc24)C3=O)cc(C)c1Cl` [Example 390, (R)-3-(7-Chloro-10-(3-(4-chloro-3,5-dimethylphenoxy)propyl)-6-(4,6-dimethyl-2-(pyrrolidin-1-ylmethyl)pyrimidin-5-yl)-4-methyl-1-oxo-3,4-dihydropyrazino[1,2-a]indol-2(1H)-yl)-1-methyl-1H-indole-5-carboxylic acid], the GI50 in assay [1] (setting [2]) was found to be 340 nM. The Ki on Mcl-1 is 2.3 nM.

Turning to `Cc1cc(OCCCc2c3n(c4c(-c5c(C)nn(C)c5C)c(Cl)ccc24)[C@H](C)CN(c2cccc4cc5n(c24)CCNC5=O)C3=O)cc(C)c1Cl` [Example 434, (R)-7-Chloro-10-(3-(4-chloro-3,5-dimethylphenoxy)propyl)-4-methyl-6-(1,3,5-trimethyl-1H-pyrazol-4-yl)-3,3′,4,4′-tetrahydro-1H-[2,6′-bipyrazino[1,2-a]indole]-1,1′(2′H)-dione], the GI50 in assay [1] (setting [2]) worked out at 890 nM. For the same molecule, the Ki on Mcl-1 is 5.5 nM.

As for `Cc1cc(OCCCc2c3n(c4c(-c5c(C)nc(CN(C)CCN(C)C)nc5C)c(Cl)ccc24)[C@H](C)CN(c2cn(C)c4ccc(C(=O)O)cc24)C3=O)cc(C)c1Cl` [Example 448, (R)-3-(7-Chloro-10-(3-(4-chloro-3,5-dimethylphenoxy)propyl)-6-(2-(((2-(dimethylamino)ethyl)(methyl)amino)methyl)-4,6-dimethylpyrimidin-5-yl)-4-methyl-1-oxo-3,4-dihydropyrazino[1,2-a]indol-2(1H)-yl)-1-methyl-1H-indole-5-carboxylic acid], the GI50 in assay [1] (setting [2]) is 360 nM. Also, the Ki on Mcl-1 stood at 2.2 nM.

On to `CCn1cc2cc(C(=O)O)cc(N3CCCn4c(c(CCCOc5cc(C)c(Cl)c(C)c5)c5ccc(Cl)c(-c6c(C)nn(C)c6C)c54)C3=O)c2n1` [Example 124, 7-(8-chloro-11-(3-(4-chloro-3,5-dimethylphenoxy)propyl)-1-oxo-7-(1,3,5-trimethyl-1H-pyrazol-4-yl)-4,5-dihydro-1H-[1,4]diazepino[1,2-a]indol-2(3H)-yl)-2-ethyl-2H-indazole-5-carboxylic acid], for which, in assay [1] (setting [2]), the GI50 is 1900 nM. In addition, the Ki on Mcl-1 is below 1 nM.

As to `Cc1cc(OCCCc2c3n(c4c(-c5c(C)ncnc5C)c(Cl)ccc24)[C@H](C)CN(c2cccc4cc(C(=O)O)ccc24)C3=O)cc(C)c1Cl` [Example 218, 5-[(4R)-7-chloro-10-[3-(4-chloro-3,5-dimethyl-phenoxy)propyl]-6-(4,6-dimethylpyrimidin-5-yl)-4-methyl-1-oxo-3,4-dihydropyrazino[1,2-a]indol-2-yl]naphthalene-2-carboxylic acid], in assay [1] (setting [2]), the GI50 was below 200 nM. In addition, on Mcl-1, the Ki is below 1 nM.

Turning to `Cc1cc(N2C[C@@H](C)n3c(c(CCCOc4cc(C)c(Cl)c(C)c4)c4ccc(Cl)c(-c5c(C)nn(C)c5C)c43)C2=O)c2c(c1)cc(C(=O)O)n2Cc1cccc(C)n1` [Example 457, (R)-7-(7-Chloro-10-(3-(4-chloro-3,5-dimethylphenoxy)propyl)-4-methyl-1-oxo-6-(1,3,5-trimethyl-1H-pyrazol-4-yl)-3,4-dihydropyrazino[1,2-a]indol-2(1H)-yl)-5-methyl-1-((6-methylpyridin-2-yl)methyl)-1H-indole-2-carboxylic acid], the GI50 in assay [1] (setting [2]) is below 200 nM. For the same molecule, the Ki on Mcl-1 is below 1 nM.

Consider “(R)-4-(7-chloro-10-(3-(4-chloro-3,5-dimethylphenoxy)propyl)-4-methyl-1-oxo-6-(1,3,5-trimethyl-1H-pyrazol-4-yl)-3,4-dihydropyrazino[1,2-a]indol-2(1H)-yl)-2-methyl-2H-indazole-1-carboxylic acid [Example 97]”, for which, in assay [1] (H929 cells, 72 h, Cell TiterGlo, 10% FBS, read-out: GI50 on cellular proliferation of H929 human cancer cell lines), the GI50 was 3400 nM. At Mcl-1, the Ki was below 1 nM.

With `Cc1cc(OCCCc2c3n(c4c(-c5c(C)nn(C)c5C)c(Cl)ccc24)[C@H](C)CN(c2ccc4c(C(=O)O)cn(C)c4c2)C3=O)cc(C)c1Cl` [Example 79, (R)-6-(7-Chloro-10-(3-(4-chloro-3,5-dimethylphenoxy)propyl)-4-methyl-1-oxo-6-(1,3,5-trimethyl-1H-pyrazol-4-yl)-3,4-dihydropyrazino[1,2-a]indol-2(1H)-yl)-1-methyl-1H-indole-3-carboxylic acid], the GI50 in assay [1] (setting [2]) came to 1500 nM. Moreover, the Ki on Mcl-1 is below 1 nM.

For the molecule `Cc1cc(OCCCc2c3n(c4c(-c5c(C)nn(C)c5C)c(Cl)ccc24)[C@H](C)CN(c2cn(C)c4c(C#N)cccc24)C3=O)cc(C)c1Cl` [Example 209, (R)-3-(7-Chloro-10-(3-(4-chloro-3,5-dimethylphenoxy)propyl)-4-methyl-1-oxo-6-(1,3,5-trimethyl-1H-pyrazol-4-yl)-3,4-dihydropyrazino[1,2-a]indol-2(1H)-yl)-1-methyl-1H-indole-7-carbonitrile], the GI50 in assay [1] (setting [2]) came out at 3500 nM. Further, the Ki on Mcl-1 worked out at 1.2 nM.

For the molecule `Cc1cc(OCCCc2c3n(c4c(-c5c(C)nn(C)c5C)c(Cl)ccc24)[C@H](C)CN(c2cc(OCCN4CCOCC4)cc4cc(C(=O)O)n(C)c24)C3=O)cc(C)c1Cl` [Example 458, (R)-7-(7-Chloro-10-(3-(4-chloro-3,5-dimethylphenoxy)propyl)-4-methyl-1-oxo-6-(1,3,5-trimethyl-1H-pyrazol-4-yl)-3,4-dihydropyrazino[1,2-a]indol-2(1H)-yl)-1-methyl-5-(2-morpholinoethoxy)-1H-indole-2-carboxylic acid], the GI50 in assay [1] (setting [2]) came to 290 nM. Besides, the Ki on Mcl-1 was 1.2 nM.

Turning to `Cc1cc(OCCCc2c3n(c4c(-c5c(C)nn(C)c5C)c(Cl)ccc24)[C@H](C)CN(c2cc(C(=O)O)c4cnn(C)c4c2)C3=O)cc(C)c1Cl` [Example 53, (R)-6-(7-chloro-10-(3-(4-chloro-3,5-dimethylphenoxy)propyl)-4-methyl-1-oxo-6-(1,3,5-trimethyl-1H-pyrazol-4-yl)-3,4-dihydropyrazino[1,2-a]indol-2(1H)-yl)-1-methyl-1H-indazole-4-carboxylic acid], the GI50 in assay [1] (setting [2]) was 500 nM. Further, the Ki on Mcl-1 was below 1 nM.

`Cc1cc(OCCCc2c3n(c4c(-c5c(C)nn(C)c5C)c(Cl)ccc24)[C@H](C)CN(c2cn(C)c4ccc(-c5ccccn5)cc24)C3=O)cc(C)c1Cl` [Example 389, (R)-7-Chloro-10-(3-(4-chloro-3,5-dimethylphenoxy)propyl)-4-methyl-2-(1-methyl-5-(pyridin-2-yl)-1H-indol-3-yl)-6-(1,3,5-trimethyl-1H-pyrazol-4-yl)-3,4-dihydropyrazino[1,2-a]indol-1(2H)-one]: the GI50 in assay [1] (setting [2]) came out at 1500 nM. Further, the Ki on Mcl-1 is below 1 nM.

For `Cc1cc(OCCCc2c3n(c4c(-c5c(C)ncnc5C)c(Cl)ccc24)CCCN(c2cccc4c(C(=O)O)cccc24)C3=O)cc(C)c1Cl` [Example 151, 5-[8-Chloro-11-[3-(4-chloro-3,5-dimethyl-phenoxy)propyl]-7-(4,6-dimethylpyrimidin-5-yl)-1-oxo-4,5-dihydro-3H-[1,4]diazepino[1,2-a]indol-2-yl]naphthalene-1-carboxylic acid], the GI50 in assay [1] (setting [2]) was found to be 2100 nM. The Ki on Mcl-1 was below 1 nM.

Regarding `Cc1cc(OCCCc2c3n(c4c(-c5c(C)nn(C)c5C)c(Cl)ccc24)[C@H](C)CN(c2cc(OCCN(C)C)cc4cc(C(=O)O)n(C)c24)C3=O)cc(C)c1Cl` [Example 455, (R)-7-(7-Chloro-10-(3-(4-chloro-3,5-dimethylphenoxy)propyl)-4-methyl-1-oxo-6-(1,3,5-trimethyl-1H-pyrazol-4-yl)-3,4-dihydropyrazino[1,2-a]indol-2(1H)-yl)-5-(2-(dimethylamino)ethoxy)-1-methyl-1H-indole-2-carboxylic acid], the GI50 in assay [1] (setting [2]) stood at 220 nM. In addition, on Mcl-1, the Ki is below 1 nM.

Consider `Cc1cc(OCCCc2c3n(c4c(-c5c(C)nn(C)c5C)c(Cl)ccc24)[C@H](C)CN(c2cccc4c2cc(C(=O)O)n4C(C)C)C3=O)cc(C)c1Cl` [Example 197, (R)-4-(7-Chloro-10-(3-(4-chloro-3,5-dimethylphenoxy)propyl)-4-methyl-1-oxo-6-(1,3,5-trimethyl-1H-pyrazol-4-yl)-3,4-dihydropyrazino[1,2-a]indol-2(1H)-yl)-1-isopropyl-1H-indole-2-carboxylic acid], for which the GI50 in assay [1] (setting [2]) was found to be 670 nM. Moreover, at Mcl-1, the Ki is below 1 nM.

Regarding `Cc1cc(N2C[C@@H](C)n3c(c(CCCOc4cc(C)c(Cl)c(C)c4)c4ccc(Cl)c(-c5c(C)nn(C)c5C)c43)C2=O)c2c(c1)c(C)c(C(=O)O)n2C` [Example 336, (R)-7-(7-Chloro-10-(3-(4-chloro-3,5-dimethylphenoxy)propyl)-4-methyl-1-oxo-6-(1,3,5-trimethyl-1H-pyrazol-4-yl)-3,4-dihydropyrazino[1,2-a]indol-2(1H)-yl)-1,3,5-trimethyl-1H-indole-2-carboxylic acid], the GI50 in assay [1] (setting [2]) stood at 250 nM. Also, the Ki on Mcl-1 is below 1 nM.

Turning to `Cc1cc(OCCCc2c3n(c4c(-c5c(C)nn(C)c5C)c(Cl)ccc24)CCCN(c2cc(C(=O)O)c4ncn(C)c4c2)C3=O)cc(C)c1Cl` [Example 7, 6-[8-chloro-11-[3-(4-chloro-3,5-dimethyl-phenoxy)propyl]-1-oxo-7-(1,3,5-trimethylpyrazol-4-yl)-4,5-dihydro-3H-[1,4]diazepino[1,2-a]indol-2-yl]-1-methyl-benzimidazole-4-carboxylic acid], the GI50 in assay [1] (setting [2]) came to 13000 nM. Further, the Ki on Mcl-1 came to 2.2 nM.

Turning to `Cc1cc(OCCCc2c3n(c4c(-c5c(C)nn(C)c5C)c(Cl)ccc24)[C@H](C)CN(c2cn(C)c4ccc(C(=O)N(C)Cc5cccnc5)cc24)C3=O)cc(C)c1Cl` [Example 282, 3-[(4R)-7-chloro-10-[3-(4-chloro-3,5-dimethyl-phenoxy)propyl]-4-methyl-1-oxo-6-(1,3,5-trimethylpyrazol-4-yl)-3,4-dihydropyrazino[1,2-a]indol-2-yl]-N,1-dimethyl-N-(3-pyridylmethyl)indole-5-carboxamide], the GI50 in assay [1] (setting [2]) turned out to be 2400 nM. The Ki at Mcl-1 amounted to 8.4 nM.

For the origin of these results see US11596639B2, “Substituted indole Mcl-1 inhibitors” (Vanderbilt University, priority 2016, dated 2023).
